# Experimental data as given in ChEMBL document CHEMBL1147359, “Antitumor agents, 138. Rotenoids and isoflavones as cytotoxic constitutents from Amorpha fruticosa” (1993).
# Calls of active or inactive are those of the source. The calls are words filed in the database; no cut-off is given here.
# How the values were obtained:
# P388 [1] = test: Cytotoxicity against mouse P388 cells; format: functional; conditions: read-out: ED50 (the source's name)
# RPMI-7951 [2] = test: Cytotoxicity against human RPMI7951 cells; format: functional; conditions: read-out: ED50 (the source's name)
# A549 [3] = test: Cytotoxicity against human A549 cells at 10 ug/ml; format: functional, cell-based
# KB [4] = test: Cytotoxicity against human KB cells; format: functional; conditions: read-out: ED50 (the source's name)
# HCT-8 [5] = test: Cytotoxicity against human HCT8 cells; format: functional; conditions: read-out: ED50 (the source's name)
# TE-671 [6] = test: Cytotoxicity against human TE671 cells; format: functional; conditions: read-out: ED50 (the source's name)
# TE-671 [7] = test: Cytotoxicity against human TE671 cells at 10 ug/ml; format: functional, cell-based
# A549 [8] = test: Cytotoxicity against human A549 cells; format: functional; conditions: read-out: ED50 (the source's name)
# KB [9] = test: Cytotoxicity against human KB cells at 10 ug/ml; format: functional, cell-based
# P388 [10] = test: Cytotoxicity against mouse P388 cells at 10 ug/ml; format: functional, cell-based
# HCT-8 [11] = test: Cytotoxicity against human HCT8 cells at 10 ug/ml; format: functional, cell-based
# RPMI-7951 [12] = test: Cytotoxicity against human RPMI7951 cells at 10 ug/ml; format: functional, cell-based
SMILES,EC50 (P388 [1]),EC50 (RPMI-7951 [2]),ED50 (A549 [3]),EC50 (KB [4]),EC50 (HCT-8 [5]),EC50 (TE-671 [6]),ED50 (TE-671 [7]),EC50 (A549 [8]),ED50 (KB [9]),ED50 (P388 [10]),ED50 (HCT-8 [11]),ED50 (RPMI-7951 [12])
COc1cc2c(cc1OC)[C@@H]1C(=O)c3ccc4c(c3O[C@@H]1CO2)C[C@H](C(C)(C)O[C@@H]1O[C@H](CO)[C@@H](O)[C@H](O)[C@H]1O)O4,6.68 µg/mL,4.44 µg/mL,inactive,6.32 µg/mL,7.43 µg/mL,2.95 µg/mL,–,–,–,–,–,–
COc1ccc2c(=O)c(-c3cc(OC)c(OC)cc3OC)coc2c1,0.53 µg/mL,0.49 µg/mL,inactive,0.55 µg/mL,4.63 µg/mL,–,inactive,–,–,–,–,–
COc1cc2c(cc1OC)[C@]1(O)C(=O)c3ccc4c(c3O[C@@H]1CO2)C[C@H](C(C)(C)O)O4,0.59 µg/mL,0.73 µg/mL,–,3.67 µg/mL,0.56 µg/mL,0.12 µg/mL,–,9.28 µg/mL,–,–,–,–
COc1ccc(-c2coc3c(OC)c(O)ccc3c2=O)cc1,–,–,inactive,–,–,–,inactive,–,inactive,inactive,inactive,inactive
COc1ccc(-c2coc3cc(O)c(OC)cc3c2=O)cc1,–,–,inactive,–,–,–,inactive,–,inactive,inactive,inactive,inactive
C=C(CO)[C@H]1Cc2c(ccc3c2O[C@@H]2COc4cc(OC)c(OC)cc4[C@@H]2C3=O)O1 [AMORPHIGENIN],0.04 µg/mL,0.05 µg/mL,–,0.04 µg/mL,0.03 µg/mL,< 0.01 µg/mL,–,0.05 µg/mL,–,–,–,–
COC1=CC(=O)[C@]2(C=C1OC)OC[C@H]1Oc3c(ccc4c3C=CC(C)(C)O4)C(=O)[C@H]12 [AMORPHISPIRONONE],–,0.61 µg/mL,inactive,0.58 µg/mL,–,–,inactive,–,–,inactive,inactive,–
C=C(CO)[C@H]1Cc2c(ccc3c2O[C@@H]2COc4cc(OC)c(OC)cc4[C@]2(O)C3=O)O1 [DABINOL],< 0.001 µg/mL,< 0.001 µg/mL,–,< 0.001 µg/mL,< 0.001 µg/mL,< 0.001 µg/mL,–,< 0.001 µg/mL,–,–,–,–
COc1cc2c(cc1OC)[C@@H]1C(=O)c3ccc4c(c3O[C@@H]1CO2)C[C@H](C(C)(C)O)O4 [DALPANOL],–,4.83 µg/mL,–,0.89 µg/mL,0.48 µg/mL,0.49 µg/mL,–,0.86 µg/mL,–,inactive,–,–
COc1cc2c(cc1OC)[C@]1(O)C(=O)c3ccc4c(c3O[C@@H]1CO2)C=CC(C)(C)O4 [TEPHROSIN],0.06 µg/mL,0.07 µg/mL,–,0.36 µg/mL,0.09 µg/mL,0.05 µg/mL,–,< 0.001 µg/mL,–,–,–,–
